In patent US20250313575A1, “MACROCYCLES AS LRRK2 INHIBITORS, PHARMACEUTICAL COMPOSITIONS, AND USES THEREOF” (Merck Sharp & Dohme LLC, priority 2022, published 2025):

The molecules below were run against GST-tagged truncated human mutant G2019S LRRK2 (Homo sapiens (Human), UniProt Q5S007, G2019S) (assay: LRRK2 G2019S Km ATP LanthaScreen assay). Conditions: G2019S LRRK2, 134 μM ATP (Km ATP), LRRKtide substrate.
Assay type: biochemical
Procedure, shortened: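 TR-FRET assay with GST-tagged truncated human G2019S LRRK2 (1.25 nM), preincubated with compound 15 min, then reacted with fluorescein-LRRKtide and 134 μM ATP (Km) in Tris pH 8.5 buffer, 90 min, ambient temperature. Tb-anti-phospho-LRRKtide detection, 520/495 nm ratio; IC50 by 4-parameter logistic fit, top concentration 9.99 μM in DMSO, 10 points.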

Chain of GST-tagged truncated human mutant G2019S LRRK2 (Q5S007 970-2527 G2019S): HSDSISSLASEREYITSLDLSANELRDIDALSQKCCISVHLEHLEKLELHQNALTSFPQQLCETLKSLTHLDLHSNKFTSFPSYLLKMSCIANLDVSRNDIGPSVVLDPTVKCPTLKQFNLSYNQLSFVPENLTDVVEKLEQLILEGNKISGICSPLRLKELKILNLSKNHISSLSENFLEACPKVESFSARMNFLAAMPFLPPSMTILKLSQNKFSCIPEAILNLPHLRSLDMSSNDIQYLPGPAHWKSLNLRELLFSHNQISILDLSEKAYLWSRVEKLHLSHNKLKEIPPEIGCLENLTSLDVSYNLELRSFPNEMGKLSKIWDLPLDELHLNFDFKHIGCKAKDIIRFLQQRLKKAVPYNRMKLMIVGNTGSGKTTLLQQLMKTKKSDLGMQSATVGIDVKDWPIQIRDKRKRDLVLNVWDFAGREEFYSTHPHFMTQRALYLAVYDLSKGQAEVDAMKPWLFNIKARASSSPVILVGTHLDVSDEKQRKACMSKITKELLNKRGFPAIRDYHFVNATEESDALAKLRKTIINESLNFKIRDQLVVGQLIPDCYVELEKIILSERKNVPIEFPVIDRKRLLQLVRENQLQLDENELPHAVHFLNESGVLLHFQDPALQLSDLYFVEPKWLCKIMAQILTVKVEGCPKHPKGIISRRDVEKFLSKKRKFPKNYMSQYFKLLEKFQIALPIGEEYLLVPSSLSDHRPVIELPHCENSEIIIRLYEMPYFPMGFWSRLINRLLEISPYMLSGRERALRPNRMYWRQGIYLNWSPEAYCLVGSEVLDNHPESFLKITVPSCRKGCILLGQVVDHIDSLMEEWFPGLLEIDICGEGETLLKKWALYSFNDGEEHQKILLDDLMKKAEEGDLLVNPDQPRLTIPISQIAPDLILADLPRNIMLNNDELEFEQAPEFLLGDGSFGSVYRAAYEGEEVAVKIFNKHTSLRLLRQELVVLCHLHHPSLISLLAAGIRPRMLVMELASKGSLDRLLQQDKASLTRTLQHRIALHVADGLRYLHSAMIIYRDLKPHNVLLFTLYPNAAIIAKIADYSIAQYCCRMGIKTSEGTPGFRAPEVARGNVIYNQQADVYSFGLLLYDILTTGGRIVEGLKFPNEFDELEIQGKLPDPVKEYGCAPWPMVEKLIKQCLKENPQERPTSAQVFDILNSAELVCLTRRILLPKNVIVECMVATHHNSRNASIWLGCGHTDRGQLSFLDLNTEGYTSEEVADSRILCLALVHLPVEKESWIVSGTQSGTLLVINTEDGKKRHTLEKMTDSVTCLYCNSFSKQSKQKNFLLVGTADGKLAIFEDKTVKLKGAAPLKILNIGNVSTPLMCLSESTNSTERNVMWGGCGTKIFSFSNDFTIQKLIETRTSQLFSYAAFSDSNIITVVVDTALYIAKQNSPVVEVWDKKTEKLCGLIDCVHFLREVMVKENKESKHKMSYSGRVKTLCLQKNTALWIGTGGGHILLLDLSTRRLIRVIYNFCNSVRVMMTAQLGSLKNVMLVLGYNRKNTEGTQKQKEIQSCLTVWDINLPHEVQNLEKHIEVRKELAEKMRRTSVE

Row | Compound | LRRK2 pIC50
1 | Cc1nn(C2CC2)c2c1OC[C@@H]1CC[C@H]1Nc1nc(ncc1C(F)(F)F)N2 [Ex-2.68, (10aR,12aR)-3-cyclopropyl-1-methyl-8-(trifluoromethyl)-3,4,10,10a,11,12,12a,13-octahydro-5,9-(azeno)cyclobuta[k]pyrazolo[4,3-b][1]oxa[4,6,10]triazacyclotridecine] | >10.09
2 | COC1CCC1n1nc(C)c2c1Nc1ncc(C(F)(F)F)c(n1)NC1COCC1CO2 [Ex-2.38, (10aS,13aS)-3-((1R,2R)-(10aS,13aS)-3-((1S,2R)-(10aS,13aS)-3-((1R,2S)-(10aS,13aS)-3-((1R,2R)-(10aR,13aR)-3-((1S,2R)-(10aR,13aR)-3-((1R,2S)-2-methoxycyclobutyl)-1-methyl-8-(trifluoromethyl)-3,4,10a,11,13a,14-hexahydro-10H,13H-5,9-(azeno)furo[3,4-k]pyrazolo[4,3-b][1]oxa[4,6,10]triazacyclotridecine] | 6.13
3 | Cc1nn(C)c2c1OCC[C@@H](C)Nc1nc(ncc1C(F)(F)F)N2 (mixture of isomers) [Ex-2.2, (R)- and (S)-1,3,7-trimethyl-10-(trifluoromethyl)-1,5,6,7,8,14-hexahydro-9,13-(azeno)pyrazolo[4,3-b][1]oxa[4,6,10]triazacyclotridecine] | 5.45
4 | C=CCn1nc(C)c2c1Nc1ncc(C(F)(F)F)c(n1)N[C@@H]1COC[C@H]1CO2 [Ex-5.3, (10aS,13aS)-3-allyl-1-methyl-8-(trifluoromethyl)-3,4,10a,11,13a,14-hexahydro-10H,13H-5,9-(azeno)furo[3,4-k]pyrazolo[4,3-b][1]oxa[4,6,10]triazacyclotridecine] | 7.30
5 | Cc1nn(C2CCC2)c2c1OC[C@@H]1CC[C@H]1Nc1cc(ncc1Cl)N2 [Ex-13.3, (10aR,12aR)-8-chloro-3-cyclobutyl-1-methyl-3,4,10,10a,11,12,12a,13-octahydro-5,9-(metheno)cyclobuta[k]pyrazolo[4,3-b][1]oxa[4,6,10]triazacyclotridecine] | >10.09
6 | Cc1nn(C2CCC2)c2c1OCCC(C)Nc1nc(ncc1C(F)(F)F)N2 (single isomer, unassigned) [Ex-2.6, (R)- or (S)-1-cyclobutyl-3,7-dimethyl-10-(trifluoromethyl)-1,5,6,7,8,14-hexahydro-9,13-(azeno)pyrazolo[4,3-b][1]oxa[4,6,10]triazacyclotridecine] | 9.17
7 | O[C@@H]1CC[C@H]1n1nc(C2CC2)c2c1OC[C@@H]1COC[C@H]1Nc1nc(ncc1C(F)(F)F)N2 (single isomer, unassigned) [Ex-6.9, (1R,2R)- or (1S,2S)-2-((10aS,13aS)-3-cyclopropyl-8-(trifluoromethyl)-10a,11,13a, 14-tetrahydro-10H,13H-5,9-(azeno)furo[3,4-k]pyrazolo[3,4-b][1]oxa[4,6,10]triazacyclotridecin-1(4H)-yl)cyclobutan-1-ol] | >10.09
8 | Cc1nn(C2CCC2)c2c1OC[C@@H]1COCC[C@H]1Nc1nc(ncc1C(F)(F)F)N2 [Ex-2.33, (4aR,16aS)- or (4aS,16aR)-12-cyclobutyl-14-methyl-7-(trifluoromethyl)-3,4,4a,5,11,12,16,16a-octahydro-1H-6,10-(azeno)pyrano[4,3-k]pyrazolo[4,3-b][1]oxa[4,6,10]triazacyclotridecine] | 9.11
9 | COC1CC(n2nc(C)c3c2Nc2ncc(Cl)c(n2)N[C@@H]2CC[C@H]2CO3)C1 (stereo partly drawn) [Ex-2.77, (10aR,12aR)-8-chloro-3-(3-methoxycyclobutyl)-1-methyl-3,4,10,10a,11,12,12a,13-octahydro-5,9-(azeno)cyclobuta[k]pyrazolo[4,3-b][1]oxa[4,6,10]triazacyclotridecine] | >10.09
10 | CC(C)c1nn(C2CS(=O)(=O)C2)c2c1Nc1ncc(C(F)(F)F)c(n1)N[C@@H]1CC[C@H]1CO2 [Ex-10.1, 3-((10aR,12aR)-3-isopropyl-8-(trifluoromethyl)-10,10a,11,12,12a,13-hexahydro-5,9-(azeno)cyclobuta[k]pyrazolo[3,4-b][1]oxa[4,6,10]triazacyclotridecin-1 (4H)-yl) thietane 1,1-dioxide] | >10.09
11 | Cc1nn(C2CC2)c2c1OC[C@@H]1COC[C@H]1Nc1nc(ncc1Cl)N2 [Ex-2.55, (10aS,13aS)-8-chloro-3-cyclopropyl-1-methyl-3,4,10a,11,13a,14-hexahydro-10H,13H-5,9-(azeno)furo[3,4-k]pyrazolo[4,3-b][1]oxa[4,6,10]triazacyclotridecine] | 8.94
12 | Cc1nn(C(C)C)c2c1OC[C@@H]1CC[C@H]1Nc1cc(ncc1Cl)N2 [Ex-13.4, (10aR,12aR)-8-chloro-3-isopropyl-1-methyl-3,4,10,10a,11,12,12a,13-octahydro-5,9-(metheno)cyclobuta[k]pyrazolo[4,3-b][1]oxa[4,6,10]triazacyclotridecine] | 9.61
13 | CC(C)n1nc(C2CC2)c2c1Nc1ncc(C(F)(F)F)c(n1)N[C@@H]1COC[C@H]1CO2 [Ex-2.57, (10aS,13aS)-1-cyclopropyl-3-isopropyl-8-(trifluoromethyl)-3,4,10a,11,13a,14-hexahydro-10H,13H-5,9-(azeno)furo[3,4-k]pyrazolo[4,3-b][1]oxa[4,6,10]triazacyclotridecine] | 9.98
14 | CC(C)c1nn(C(C)(C)C#N)c2c1Nc1ncc(Cl)c(n1)N[C@@H]1COC[C@H]1CO2 [Ex-1.16, 2-((10aS,13aS)-8-chloro-3-isopropyl-10a,11,13a,14-tetrahydro-10H,13H-5,9-(azeno)furo[3,4-k]pyrazolo[3,4-b][1]oxa[4,6,10]triazacyclotridecin-1(4H)-yl)-2-methylpropanenitrile] | 9.76
15 | Cc1nn(C)c2c1OCC1CC[C@H]1Nc1nc(ncc1C(F)(F)F)N2 (stereo partly drawn) [Ex-2.12, (10aR,12aS)- or (10aS,12aR)-1,3-dimethyl-8-(trifluoromethyl)-3,4,10,10a,11,12,12a,13-octahydro-5,9-(azeno)cyclobuta[k]pyrazolo[4,3-b][1]oxa[4,6,10]triazacyclotridecine] | 7.61
16 | Cc1nn(C2CCC2)c2c1OC[C@@H]1CC[C@@H]1Nc1nc(ncc1Cl)N2 [Ex-2.56, (10aS,12aR)-8-chloro-3-cyclobutyl-1-methyl-3,4,10,10a,11,12,12a,13-octahydro-5,9-(azeno)cyclobuta[k]pyrazolo[4,3-b][1]oxa[4,6,10]triazacyclotridecine] | >10.09
17 | CC(C)n1nc(C(C)(C)C#N)c2c1Nc1ncc(C(F)(F)F)c(n1)N[C@@H]1COC[C@H]1CO2 [Ex-2.43, 2-((10aS,13aS)-3-isopropyl-8-(trifluoromethyl)-3,4,10a,11,13a,14-hexahydro-10H,13H-5,9-(azeno)furo[3,4-k]pyrazolo[4,3-b][1]oxa[4,6,10]triazacyclotridecin-1-yl)-2-methylpropanenitrile] | >10.09
18 | O[C@@H]1COCC1n1nc(C2CC2)c2c1OC[C@H]1CC[C@@H]1Nc1nc(ncc1C(F)(F)F)N2 (single isomer, unassigned) [Ex-6.2, (3R,4S)-4-((10aR,12aR)- or (3R,4S)-4-((10aS,12aS)- or (3S,4R)-4-((10aR,12aR)- or (3S,4R)-4-((10aR,12aR)-3-cyclopropyl-8-(trifluoromethyl)-10,10a,11,12,12a,13-hexahydro-5,9-(azeno)cyclobuta[k]pyrazolo[3,4-b][1]oxa[4,6,10]triazacyclotridecin-1 (4H)-yl)tetrahydrofuran-3-ol] | >10.09
19 | Cc1nn(C)c2c1OCC1CC[C@H]1Nc1nc(ncc1C(F)(F)F)N2 (stereo partly drawn) [Ex-2.13, (10aR,12aS)- or (10aS,12aR)-1,3-dimethyl-8-(trifluoromethyl)-3,4,10,10a,11,12,12a,13-octahydro-5,9-(azeno)cyclobuta[k]pyrazolo[4,3-b][1]oxa[4,6,10]triazacyclotridecine] | >10.09
20 | Cc1nn(C2CCC2)c2c1OC[C@@H]1COC[C@H]1Nc1nc(ncc1C(F)(F)F)N2 (single isomer, unassigned) [Ex-2.27, (3aR,15aR)- or (3aS,15aS)-11-cyclobutyl-13-methyl-6-(trifluoromethyl)-2,3,3a,4,10,11,15,15a-octahydro-5,9-(azeno)furo[3,2-k]pyrazolo[4,3-b][1]oxa[4,6,10]triazacyclotridecine] | 6.47
21 | Cc1nn(C)c2c1OC[C@@H]1CN(C[C@H]1C)c1nc(ncc1C(F)(F)F)N2 [Ex-19.1] | >10.09
22 | CC1CCOc2c(C(C)(C)C#N)nn(C3CCC3)c2Nc2ncc(C(F)(F)F)c(n2)N1 (single isomer, unassigned) [Ex-2.30, (R)- or (S)-butyl-7-methyl-10-(trifluoromethyl)-1,5,6,7,8,14-hexahydro-9,13-(azeno)pyrazolo[4,3-b][1]oxa[4,6,10]triazacyclotridecin-3-yl)-2-methylpropanenitrile] | 10.03
23 | Cn1nc(C(F)(F)F)c2c1OCC1COC[C@H]1Nc1nc(ncc1C(F)(F)F)N2 (stereo partly drawn) [Ex-1.2, (10aS,13aS)-1-Methyl-3,8-bis(trifluoromethyl)-1,4,10a,11,13a,14-hexahydro-10H,13H-5,9-(azeno)furo[3,4-k]pyrazolo[3,4-b][1]oxa[4,6,10]triazacyclotridecine] | >10.09

Same assay, conditions: G2019S LRRK2, 134 μM ATP (Km ATP), LRRKtide substrate; read-out: LRRK2 pIC50 (converted)

Row | Compound | IC50
24 | Cc1nn2c(c1C)Nc1ncc(C(F)(F)F)c(n1)N[C@@H](C)CCC2 (single isomer, unassigned) [Ex-16.2, 8,14,15-Trimethyl-5-(trifluoromethyl)-8,9,10,11-tetrahydro-1H,7H-2,6-(azeno)pyrazolo[1,5-a][1,3,5,9]tetraazacyclotridecine] | 0.631 nM
25 | COC1CC(n2nc(C)c3c2Nc2ncc(C(F)(F)F)c(n2)NC2COCC2CO3)C1 (single isomer, unassigned) [Ex-2.32, (10aS,13aS)- or (10aR,13aR)-3-((1R,3S)-3-methoxycyclobutyl)-1-methyl-8-(trifluoromethyl)-3,4,10a,11,13a,14-hexahydro-10H,13H-5,9-(azeno)furo[3,4-k]pyrazolo[4,3-b][1]oxa[4,6,10]triazacyclotridecine] | 0.0912 nM
